Experimental data as given in patent publication US20100048714A1, “Methods and Compositions Related to Inhibition of Ceramide Synthesis” (University of Utah Research Foundation, priority 2006, published 2010).

Tested on: Sprague-Dawley rats
Experiment: Lipid infusion with hyperinsulinemic euglycemic clamps
Assay type: in vivo, rat
Conditions: for Glucose, During Clamp / FFA, Before Clamp / FFA, Before Infusion / FFA, During Clamp / Glucose, Before Clamp / Glucose, Before Infusion / Insulin, Before Clamp / Insulin, Before Infusion / Insulin, During Clamp: plasma, mean ± standard error, n=4; for Glucose, During Clamp: 30 minute steady state
Source text: The more common mechanism by which insulin resistance likely develops in the obese is through the accumulation of fats in tissues not-suited for lipid storage. Indeed, intramyocellular lipid levels inversely correlate with insulin sensitivity, and are one of the best predictors of insulin resistance in humans. To mimic this condition in rats, a 20% lard oil-heparin infusate was delivered into the bloodstream of Sprague-Dawley rats via jugular catheters. […] To assess muscle insulin sensitivity during the infusion, hyperinsulinemic-euglycemic clamps were performed on conscious, unrestrained rats during the terminal 90 minutes of the protocol. Lard oil infusion decreased insulin-stimulated glucose disposal to 47% of glycerol treated control subjects (FIG. 3C). […] Differences in the glucose infusion rats could not be accounted for by the slight differences in the glucose concentration that was achieved during the clamp nor to differences in steady-state insulin concentrations (Table 3).
Male Sprague-Dawley rats (˜250 grams) were randomly divided into nine different groups. Glycerol, 20% lard oil, or 20% soy oil emulsions were prepared as previously described (Stein 1997) and infused at a constant rate of 5 mL/Kg/hour. To activate lipoprotein lipase, heparin (6 units/hour) was added to the triglyceride emulsions. Lipids were infused in animals treated with control injections (normal saline), myriocin (100 μg/Kg IP) or cycloserine (50 mg/Kg IP). Drugs were given 12 hours prior to lipid infusion and equivalent doses were given intravenously at the time of infusion. […] Following lipid infusion animals were deeply anesthetized with sodium pentobarbital and soleus muscles were rapidly dissected out and rapidly frozen in liquid nitrogen.
Clamps were performed in conscious unrestrained animals using swivels and tethers (Instech, Plymouth Meeting, Pa.) to allow uninterrupted movement of the animal without disruption of infusion lines. Hyperinsulinemia was initiated by intravenous infusion of insulin (10 mU/kg/min at a flow rate of 4 μL/min).

[1] = Intralipid infusion, with or without myriocin or cycloserine
[2] = lard oil infusion, with or without myriocin or cycloserine

SMILES: CCCCCCC(=O)CCCCCC/C=C/C[C@@H](O)[C@H](O)[C@@](N)(CO)C(=O)O [Myriocin]
- insulin-stimulated glucose disposal / insulin resistance [1]: Neither myriocin nor cycloserine prevented
- muscle DAG levels [1]: Neither myriocin nor cycloserine prevented
- ceramide in skeletal muscle [2]: blocked ceramide synthesis
- diacylglycerol (DAG) in muscle [2]: Neither myriocin nor cycloserine reduced DAG
- glucose utilization in clamp (lard-infused animals): restored glucose utilization
- Glucose, During Clamp (Lipid: Glycerol): 111.2 ± 6.6 mg/dL
- Glucose, During Clamp (Lipid: Lard oil (PBS or drug)): 108.4 ± 1.0 mg/dL
- Glucose, During Clamp (Lipid: Soy oil (PBS or drug)): 108.3 ± 0.4 mg/dL
- FFA, Before Clamp (Lipid: Glycerol): 0.455 ± 0.13 mM
- FFA, Before Infusion (Lipid: Glycerol): 1.22 ± 0.25 mM
- FFA, During Clamp (Lipid: Glycerol): 0.872 ± 0.75 mM
- Glucose, Before Clamp (Lipid: Glycerol): 117.7 ± 9.1 mg/dL
- Glucose, Before Infusion (Lipid: Glycerol): 103.0 ± 10.6 mg/dL
- Insulin, Before Clamp (Lipid: Glycerol): 1.90 ± 0.71 ng/mL
- Insulin, Before Infusion (Lipid: Glycerol): 0.436 ± 0.03 ng/mL
- Insulin, During Clamp (Lipid: Glycerol): 8.02 ± 2.52 ng/mL
- FFA, Before Clamp (Lipid: Lard oil (PBS or drug)): 1.52 ± 0.49 mM
- FFA, Before Infusion (Lipid: Lard oil (PBS or drug)): 0.912 ± 0.30 mM
- FFA, During Clamp (Lipid: Lard oil (PBS or drug)): 2.427 ± 0.30 mM
- Glucose, Before Clamp (Lipid: Lard oil (PBS or drug)): 123.3 ± 3.8 mg/dL
- Glucose, Before Infusion (Lipid: Lard oil (PBS or drug)): 101.0 ± 11.4 mg/dL
- Insulin, Before Clamp (Lipid: Lard oil (PBS or drug)): 1.90 ± 0.50 ng/mL
- Insulin, Before Infusion (Lipid: Lard oil (PBS or drug)): 0.407 ± 0.47 ng/mL
- Insulin, During Clamp (Lipid: Lard oil (PBS or drug)): 17.02 ± 3.79 ng/mL
- FFA, Before Clamp (Lipid: Soy oil (PBS or drug)): 1.58 ± 0.57 mM
- FFA, Before Infusion (Lipid: Soy oil (PBS or drug)): 1.01 ± 0.10 mM
- FFA, During Clamp (Lipid: Soy oil (PBS or drug)): 1.80 ± 0.44 mM
- Glucose, Before Clamp (Lipid: Soy oil (PBS or drug)): 105.0 ± 4.6 mg/dL
- Glucose, Before Infusion (Lipid: Soy oil (PBS or drug)): 109.3 ± 10.4 mg/dL
- Insulin, Before Clamp (Lipid: Soy oil (PBS or drug)): 2.46 ± 1.1 ng/mL
- Insulin, Before Infusion (Lipid: Soy oil (PBS or drug)): 0.305 ± 0.08 ng/mL
- Insulin, During Clamp (Lipid: Soy oil (PBS or drug)): 11.55 ± 2.91 ng/mL
